What follows are molecules tested against T1, Nav1.7 (or SCN9A) channel (Homo sapiens, UniProt Q15858) (assay: Nav1.7 PatchXpress automated whole-cell electrophysiology in HEK cells expressing hSCN9A). Details: estimated IC50 from single point data, PatchXpress assay, held at V1/2 of inactivation, read-out: Nav1.7 EIC50.
T1 construct: expressed in transfected cells
T1 sequence (Q15858 whole entry): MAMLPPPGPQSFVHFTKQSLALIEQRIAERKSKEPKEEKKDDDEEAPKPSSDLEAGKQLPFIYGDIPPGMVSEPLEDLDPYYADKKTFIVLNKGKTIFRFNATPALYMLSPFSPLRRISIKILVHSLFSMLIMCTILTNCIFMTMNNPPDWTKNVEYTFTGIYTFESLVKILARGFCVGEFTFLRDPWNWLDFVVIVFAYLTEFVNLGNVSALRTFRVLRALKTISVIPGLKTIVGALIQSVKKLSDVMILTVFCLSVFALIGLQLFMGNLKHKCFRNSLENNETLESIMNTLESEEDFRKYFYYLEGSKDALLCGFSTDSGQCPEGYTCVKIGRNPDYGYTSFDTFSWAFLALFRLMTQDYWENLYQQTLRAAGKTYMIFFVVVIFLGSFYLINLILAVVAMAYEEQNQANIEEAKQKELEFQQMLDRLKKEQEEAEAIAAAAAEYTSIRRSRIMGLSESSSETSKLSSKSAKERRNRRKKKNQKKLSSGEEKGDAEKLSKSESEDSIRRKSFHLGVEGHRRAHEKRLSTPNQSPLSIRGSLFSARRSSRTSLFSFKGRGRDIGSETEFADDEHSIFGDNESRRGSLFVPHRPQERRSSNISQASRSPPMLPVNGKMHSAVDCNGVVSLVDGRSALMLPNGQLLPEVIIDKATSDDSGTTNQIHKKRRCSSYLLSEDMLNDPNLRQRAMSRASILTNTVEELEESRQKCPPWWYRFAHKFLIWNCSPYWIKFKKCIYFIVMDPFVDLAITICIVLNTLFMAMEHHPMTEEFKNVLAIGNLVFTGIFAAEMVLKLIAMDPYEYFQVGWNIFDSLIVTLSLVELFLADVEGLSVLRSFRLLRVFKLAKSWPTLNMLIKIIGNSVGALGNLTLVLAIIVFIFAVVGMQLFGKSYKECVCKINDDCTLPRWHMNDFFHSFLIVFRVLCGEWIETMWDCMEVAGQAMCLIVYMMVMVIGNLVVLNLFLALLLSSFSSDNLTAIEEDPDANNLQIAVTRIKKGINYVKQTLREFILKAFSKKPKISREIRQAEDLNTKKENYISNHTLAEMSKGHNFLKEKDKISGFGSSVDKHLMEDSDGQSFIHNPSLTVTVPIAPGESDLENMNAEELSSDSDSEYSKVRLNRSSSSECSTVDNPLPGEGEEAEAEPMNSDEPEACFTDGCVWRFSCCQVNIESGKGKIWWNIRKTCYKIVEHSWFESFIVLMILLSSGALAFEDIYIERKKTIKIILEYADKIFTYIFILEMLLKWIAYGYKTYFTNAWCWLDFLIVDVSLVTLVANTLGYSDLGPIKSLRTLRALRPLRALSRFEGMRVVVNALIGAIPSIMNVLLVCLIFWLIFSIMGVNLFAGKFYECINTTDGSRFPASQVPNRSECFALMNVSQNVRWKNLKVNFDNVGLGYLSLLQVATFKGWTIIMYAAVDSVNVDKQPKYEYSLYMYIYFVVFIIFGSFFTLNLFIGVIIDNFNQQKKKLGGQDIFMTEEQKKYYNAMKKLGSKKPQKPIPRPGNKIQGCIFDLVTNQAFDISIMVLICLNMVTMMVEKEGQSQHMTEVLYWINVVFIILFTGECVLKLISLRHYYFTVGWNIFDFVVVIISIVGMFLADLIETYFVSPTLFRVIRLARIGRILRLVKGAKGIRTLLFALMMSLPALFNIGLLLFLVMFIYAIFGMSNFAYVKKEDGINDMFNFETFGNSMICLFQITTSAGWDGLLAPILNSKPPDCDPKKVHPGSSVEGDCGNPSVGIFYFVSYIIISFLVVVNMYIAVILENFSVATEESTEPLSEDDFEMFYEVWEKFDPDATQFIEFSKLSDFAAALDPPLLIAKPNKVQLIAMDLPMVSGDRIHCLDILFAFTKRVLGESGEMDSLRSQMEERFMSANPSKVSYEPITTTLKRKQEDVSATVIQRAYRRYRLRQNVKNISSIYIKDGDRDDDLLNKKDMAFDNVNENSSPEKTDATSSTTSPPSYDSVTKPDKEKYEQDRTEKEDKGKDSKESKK
Format: cell-based
Method: The ability of the compounds of formula (I) to block the Nav1.7 (or SCN9A) channel were measured using the assay described below.
Human Embryonic Kidney (HEK) cells were transfected with an hSCN9A construct using lipofectamine reagent (Invitrogen), using standard techniques. Cells stably expressing the hSCN9A constructs were identified by their resistance to G-418 (400 μg/ml). Clones were screened for expression using the whole-cell voltage-clamp technique.
HEK cells stably transfected with hSCN9A were maintained in DMEM medium supplemented with 10% heat-inactivated fetal bovine serum and 400 μg/ml G-418 in an incubator at 37° C. with a humidified atmosphere of 10% CO2. For HTS, cells were harvested from flasks by trypsinization and replated in an appropriate multi-well plate (typically 96 or 384 wells/plate) such that confluence would be achieved within 24 hours of plating. For electrophysiological studies, cells were removed from the culture flask by brief trypsinization and re-plated at low density onto glass cover slips. Cells were typically used for electrophysiological experiments within 24 to 72 hours after plating.
Cover slips containing HEK cells expressing hSCN9A were placed in a bath on the stage of an inverted microscope and perfused (approximately 1 ml/minutes) with extracellular solution of the following composition: 138 mM NaCl, 2 mM CaCl2, 5.4 mM KCl, 1 mM MgCl2, 10 mM glucose, and 10 mM HEPES, pH 7.4, with NaOH. […] The osmolarity of the extracellular and intracellular solutions was 300 mOsm/kg and 295 mOsm/kg, respectively. All recordings were made at room temperature (22-24° C.) using AXOPATCH 200B amplifiers and PCLAMP software (Axon Instruments, Burlingame, Calif.).
hSCN9A currents in HEK cells were measured using the whole-cell configuration of the patch-clamp technique (Hamill et al., 1981). Uncompensated series resistance was typically 2 to 5 mega ohms and >85% series resistance compensation was routinely achieved. As a result, voltage errors were negligible and no correction was applied. Current records were acquired at 20 to 50 KHz and filtered at 5 to 10 KHz.
HEK cells stably transfected with hSCN9A were viewed under Hoffman contrast optics and placed in front of an array of flow pipes emitting either control or compound-containing extracellular solutions. All compounds were dissolved in dimethyl sulfoxide to make 10 mM stock solutions, which were then diluted into extracellular solution to attain the final concentrations desired. […] The voltage-dependence of inactivation was determined by applying a series of depolarizing prepulses (8 sec long in 10 mV increments) from a negative holding potential. The voltage was then immediately stepped to 0 mV to assess the magnitude of the sodium current. Currents elicited at 0 mV were plotted as a function of prepulse potential to allow estimation of the voltage at which 50% of the channels were inactivated (midpoint of inactivation or V1/2). Compounds were tested for their ability to inhibit hSCN9A sodium channels by activating the channel with a 20 msec voltage step to 0 mV following an 8 second conditioning prepulse to the empirically determined V1/2. Compound effect (% inhibition) was determined by difference in current amplitude before and after application of test compounds. For ease of comparison, “estimated IC-50” (EIC50) values were calculated from single point electrophysiology data by the following equation, (tested concentration, uM)×(100-% inhibition/% inhibition). Inhibition values<20% and >80% were excluded from the calculation.
Electrophysiological assays were conducted with PatchXpress 7000 hardware and associated software (Molecular Devices Corp). All assay buffers and solutions were identical to those used in conventional whole-cell voltage clamp experiments described above. hSCN9A cells were grown as above to 50%-80% confluency and harvested by trypsinization. […]
Work on `CS(=O)(=O)NC(=O)c1ccc(Oc2ccc(Cl)cc2)c(-c2ccc(C(F)(F)F)cc2)c1` [Example 43, 6-(4-chlorophenoxy)-N-(methylsulfonyl)-4′-(trifluoromethyl)biphenyl-3-carboxamide] yielded an IC50 of 630 nM. `COc1cc(-c2cc(C(=O)NS(C)(=O)=O)ccc2Oc2ccc(Cl)cc2)ccn1` [Example 45, 4-(4-chlorophenoxy)-3-(2-methoxypyridin-4-yl)-N-(methylsulfonyl)benzamide] gave an IC50 of 2000 nM. For `COc1ncccc1-c1cc(C(=O)NS(C)(=O)=O)ccc1Oc1ccc(Cl)cc1` [Example 47, 4-(4-chlorophenoxy)-3-(2-methoxypyridin-3-yl)-N-(methylsulfonyl)benzamide], the IC50 was 92 nM. Work on `Cn1cc(-c2cc(C(=O)NS(C)(=O)=O)ccc2Oc2ccc(Cl)cc2)cn1` [Example 48, 4-(4-chlorophenoxy)-3-(1-methyl-1H-pyrazol-4-yl)-N-(methylsulfonyl)benzamide] yielded an IC50 of 9800 nM. Work on `CS(=O)(=O)NC(=O)c1ccc(Oc2ccc(Cl)cc2)c(-c2cnc(N)nc2)c1` [Example 49, 3-(2-aminopyrimidin-5-yl)-4-(4-chlorophenoxy)-N-(methylsulfonyl)benzamide] yielded an IC50 of over 3000 nM. Work on `COc1ccc(-c2cc(C(=O)NS(C)(=O)=O)ccc2Oc2ccc(Cl)cc2)cc1` [Example 50, 6-(4-chlorophenoxy)-4′-methoxy-N-(methylsulfonyl)-biphenyl-3-carboxamide] yielded an IC50 of 730 nM. Molecule `COc1ncccc1-c1cc(C(=O)NS(C)(=O)=O)ccc1Oc1ccccc1F` [Example 51, 4-(2-fluorophenoxy)-3-(2-methoxypyridin-3-yl)-N-(methylsulfonyl)benzamide] has an IC50 of 1700 nM. Work on `COc1ncccc1-c1cc(C(=O)NS(C)(=O)=O)ccc1Oc1cccc(Cl)c1` [Example 52, 4-(3-chlorophenoxy)-3-(2-methoxypyridin-3-yl)-N-(methylsulfonyl)benzamide] yielded an IC50 of 460 nM. `COc1ncccc1-c1cc(C(=O)NS(C)(=O)=O)ccc1Oc1cc(F)cc(Cl)c1` [Example 53, 4-(3-chloro-5-fluorophenoxy)-3-(2-methoxypyridin-3-yl)-N-(methylsulfonyl)benzamide] was tested, and the IC50 was 120 nM. `COc1ncccc1-c1cc(C(=O)NS(C)(=O)=O)ccc1Oc1cccc(C(C)C)c1` [Example 54, 4-(3-isopropylphenoxy)-3-(2-methoxypyridin-3-yl)-N-(methylsulfonyl)benzamide] was tested, and the IC50 was 120 nM. Molecule `COc1ncccc1-c1cc(C(=O)NS(C)(=O)=O)ccc1Oc1ccc(F)c(F)c1` [Example 55, 4-(3,4-difluorophenoxy)-3-(2-methoxypyridin-3-yl)-N-(methylsulfonyl)benzamide] has an IC50 of 440 nM. Molecule `COc1ncccc1-c1cc(C(=O)NS(C)(=O)=O)ccc1Oc1ccc(C#N)cc1` [Example 56, 4-(4-cyanophenoxy)-3-(2-methoxypyridin-3-yl)-N-(methylsulfonyl)benzamide] has an IC50 of 2400 nM. `COc1cc(Cl)cc(Oc2ccc(C(=O)NS(C)(=O)=O)cc2-c2cccnc2OC)c1` [Example 57, 4-(3-chloro-5-methoxyphenoxy)-3-(2-methoxypyridin-3-yl)-N-(methylsulfonyl)benzamide] was tested, and the IC50 was 660 nM. For `COc1ncccc1-c1cc(C(=O)NS(C)(=O)=O)ccc1Oc1ccccc1OC(F)(F)F` [Example 58, 3-(2-methoxypyridin-3-yl)-N-(methylsulfonyl)-4-[2-(trifluoromethoxy)phenoxy]benzamide], the IC50 was over 1000 nM. `COc1ncccc1-c1cc(C(=O)NS(C)(=O)=O)ccc1Oc1cccc(F)c1` [Example 59, 4-(3-fluorophenoxy)-3-(2-methoxypyridin-3-yl)-N-(methylsulfonyl)benzamide] was tested, and the IC50 was 370 nM. `CCc1cc(Oc2ccc(C(=O)NS(C)(=O)=O)cc2-c2cccnc2OC)ccc1Cl` [Example 60, 4-(4-chloro-3-ethylphenoxy)-3-(2-methoxypyridin-3-yl)-N-(methylsulfonyl)benzamide] showed an IC50 of 18 nM. `COc1ncccc1-c1cc(C(=O)NS(C)(=O)=O)ccc1Oc1cccc(C(F)(F)F)c1` [Example 61, 3-(2-methoxypyridin-3-yl)-N-(methylsulfonyl)-4-[3-(trifluoromethyl)phenoxy]benzamide] was tested, and the IC50 was 66 nM.
